Experimental data reported in patent publication US20260365696A1, “INHIBITORS OF PTP1B / NCK1 INTERACTION AND METHODS OF MAKING AND USING SAME” (Radella Pharmaceuticals LLC, priority 2023, published 2026).
Non-standard residues stand in square brackets, D forms with d. Residues, ends and D or L forms follow the SMILES beside them. pGlu = O=C1CC[C@@H](C(=O)O)N1

biological target: T1, SH3-2 domain of NCK1 (Homo sapiens, UniProt P16333); assay: Isothermal titration calorimetry (ITC) binding to NCK1 SH3-2 domain; conditions: Alanine scanning of the MD17 15-mer peptide; ITC, 25 °C, pH 8.0
T1 construct: To amplify the NCK1 SH3-2 domain, the primers; 10xHis tag with TEV site (vector pSF-OXB20-NH2-10HIS) (N, cleaved yes); made in house; host or cells: E. coli C43(DE3)
Text: Human PTP1B cDNA (NM_002827) and human NCK1 cDNA (NM 006153) were obtained (Origene, MD, USA). PTP1B Primers were designed to amplify the ORFs with added homology to the cut vector (EcoRI-digested pSF-OXB20-NH2-10HIS) in the forward primer sequence. To amplify full-length PTP1B, the primers ptp1b_FL_fwd ([…]) (SEQ ID NO: 159) and ptp1b_FL_rev ([…]) (SEQ ID NO: 160) were used. To amplify truncations of PTP1B, the following primer pairs were used: ptp1b_FL-Fwd and one of Ptplb_323stop_rev (gtgcaggaggagttcgaatt[…]) (SEQ ID NO: 161), ptp1b_344stop_rev ([…]) (SEQ ID NO: 162) or ptp1b_278stop_rev([…]) (SEQ ID NO: 163). To amplify the NCK1 SH3-2 domain, the primers ncklsh32_fwd ([…]) (SEQ ID NO: 164) and ncklsh32_rev ([…]) (SEQ ID NO: 165) were used. The amplified fragments were purified using a DNA clean-up kit according to manufacturer's instructions (QIAquick PCR purification kit, Qiagen).
To produce and purify fusion proteins, a culture was inoculated with 1% of overnight-cultured inoculum. Protein expression was carried out under the conditions described above, scaled up as necessary. Cells expressing the recombinant proteins were harvested in 50 mL tubes by centrifugation and stored at −80 °C. Cells containing the expressed gene product were thawed over ice and resuspended in Extraction buffer (10 mM Tris, pH 7.4 or 10 mM Sodium Phosphate, pH 8.0; 300 mM NaCl, 1 mM DTT or TCEP; 0-10% glycerol and 1 μg lysozyme) and sonicated over ice (4 °C) for 3 min total using pulses of 5 s with 15 s intervals, using a wide probe at 15 amplitude microns (Soniprep 150, MSE). Insoluble material was removed from the lysate by centrifugation at 20K rpm for 20-60 min at 4 °C. Supernatant was filtered through a 0.22 μm PVDF filter membrane and applied to 1-2 5 mL HisTrap FF Crude (Cytiva) prepacked Ni columns and connected to an AKTA explorer. After thorough washing with binding buffer (10 mM Tris, pH 7.4 or 10 mM Sodium Phosphate, pH 8.0; 300 mM NaCl; 1 mM DTT or TCEP and 25 mM Imidazole), protein was eluted using elution buffer (10 mM Tris, pH 7.4 or 10 mM Sodium Phosphate, pH 8.0; 150-300 mM NaCl; 1 mM DTT or TCEP and 250 mM Imidazole). Fractions containing protein of interest were confirmed by SDS PAGE. Protein was diluted with GF buffer (10 mM Tris, pH 7.4 or 10 mM Sodium Phosphate, pH 8.0; 150-300 mM NaCl) and subjected to TEV protease treatment overnight at 4-10 °C. Following proteolytic digestion, HIS-tag and TEV protease were removed by filtration through a clean 5 mL HisTrap FF Crude (Cytiva) prepacked Ni column. Protein was concentrated on a PES ultrafiltration device by centrifugation at 4000 rpm at 4 °C, and protein was polished via a HiPrep S-100 26/60 (Cytiva) using GF buffer (as described above). Purified proteins were concentrated using ultrafiltration, and protein concentration was determined using ultraviolet-visible spectroscopy. The integrity and identity of all proteins were verified by mass spectrographic analysis.
Isothermal titration calorimetry (ITC) was used to determine binding affinities for peptides against the SH3-2 domain of NCK1. Experiments were conducted at 25 °C using either a MicroCal iTC200 or MicroCal PEAQ-ITC calorimeter. The buffer used for all ITC experiments was 10 mM sodium [COMPOUND LEFT OUT] mM sodium chloride (pH=8.0). A series of peptides (concentration 3-7.5 mM) were titrated in to NCK1 SH3-2 domain (concentration 0.125-0.3 mM) using the following conditions: one injection of 0.2 μL followed by 19 injections of 2 μL, 120-150 seconds spacing between injections, at 25 °C. The data were fit using analysis software provided by the manufacturer and affinity values were calculated. The best fitting occurred when the number of sites was between 0.8 and 1.2. The experiments were repeated twice for a total of three times, and the average binding affinity for each peptide was generated. […]

Compound	Kd [µM]
Ac-APPEHIPPPPRPPKR-NH2 [MSJ012]	≤ 300
Ac-PAPEHIPPPPRPPKR-NH2 [MSJ013]	≤ 300
Ac-PPAEHIPPPPRPPKR-NH2 [MSJ014]	≤ 300
Ac-PPPAHIPPPPRPPKR-NH2 [MSJ015]	≤ 300
Ac-PPPEAIPPPPRPPKR-NH2 [MSJ016]	≤ 300
Ac-PPPEHAPPPPRPPKR-NH2 [MSJ017]	≤ 300
Ac-PPPEHIAPPPRPPKR-NH2 [MSJ018]	≤ 300
Ac-PPPEHIPAPPRPPKR-NH2 [MSJ019]	≤ 300
Ac-PPPEHIPPAPRPPKR-NH2 [MH001]	≤ 300
Ac-PPPEHIPPPARPPKR-NH2 [MH002]	> 1000

same assay, conditions: Alanine scanning of the MD20 6-mer peptide; ITC, 25 °C, pH 8.0

Compound	Kd [µM]
Ac-ARPPKR-NH2 [MH008, Ac-ARPPKR-NH2]	> 1000
Ac-PAPPKR-NH2 [MH009, Ac-PAPPKR-NH2]	≤ 300

same assay, conditions: Modified MD18/MD20 peptides; ITC, 25 °C, pH 8.0

Compound	Kd [µM]
N=C(N)NCCC[C@H](NC(=O)[C@H](CCCCN)NC(=O)[C@@H]1CCCN1C(=O)[C@@H]1CCCN1C(=O)[C@H](CCCNC(=N)N)NC(=O)[C@@H]1CCCN1C(=O)[C@@H]1CCC(=O)N1)C(N)=O [MH043, H-Pyr-PRPPKR-NH2] ([pGlu]PRPPKR-NH2)	≤ 300
N=C(N)NCCC[C@H](NC(=O)[C@H](CCCCN)NC(=O)[C@@H]1CCCN1C(=O)[C@@H]1CCCN1C(=O)[C@H](CCCNC(=N)N)NC(=O)[C@@H]1CCC(=O)N1)C(N)=O [MH044, H-Pyr-RPPKR-NH2] ([pGlu]RPPKR-NH2)	> 1000
CCNC(=O)[C@H](CCCNC(=N)N)NC(=O)[C@H](CCCCN)NC(=O)[C@@H]1CCCN1C(=O)[C@@H]1CCCN1C(=O)[C@H](CCCNC(=N)N)NC(=O)[C@@H]1CCCN1C(C)=O [MH045, Ac-PRPPKR-NHEt] (Ac-PRPPKR-NHEt)	≤ 300
CCNC(=O)[C@H](CCCNC(=N)N)NC(=O)[C@H](CCCCN)NC(=O)[C@@H]1CCCN1C(=O)[C@@H]1CCCN1C(=O)[C@H](CCCNC(=N)N)NC(=O)[C@@H]1CCCN1C(=O)[C@@H]1CCCN1C(C)=O [MH046, Ac-PPRPPKR-NHEt] (Ac-PPRPPKR-NHEt)	≤ 300
Ac-APRPPKR-NH2 [MH047, Ac-APRPPKR-NH2]	≤ 300

same assay, conditions: N- or C-terminal extensions; ITC, 25 °C, pH 8.0; 30-mers tested one to three times

Compound	Kd [µM]
Ac-HEDLEPPPEHIPPPPRPPKR-NH2 [MH090]	≤ 300

same assay, conditions: Peptide truncation analysis; ITC, 25 °C, pH 8.0

Compound	Kd [µM]
CC(=O)N1CCC[C@H]1C(=O)N[C@@H](CCCCN)C(=O)N[C@@H](CCCNC(=N)N)C(N)=O [MH014, Ac-PKR-NH2] (Ac-Pro-Lys-Arg-NH2)	> 1000
CC(=O)N1CCC[C@H]1C(=O)N1CCC[C@H]1C(=O)N[C@@H](CCCCN)C(N)=O [MH015, Ac-PPK-NH2] (Ac-Pro-Pro-Lys-NH2)	> 1000
CC(=O)N[C@@H](CCCNC(=N)N)C(=O)N1CCC[C@H]1C(=O)N1CCC[C@H]1C(=O)N[C@@H](CCCCN)C(N)=O [MH016, Ac-RPPK-NH2] (Ac-RPPK-NH2)	> 1000
CC(=O)N1CCC[C@H]1C(=O)N1CCC[C@H]1C(=O)N[C@@H](CCCCN)C(=O)N[C@@H](CCCNC(=N)N)C(N)=O [MH017, Ac-PPKR-NH2] (Ac-PPKR-NH2)	> 1000
CC(=O)N1CCC[C@H]1C(=O)N[C@@H](CCCNC(=N)N)C(=O)N1CCC[C@H]1C(N)=O [MH019, Ac-PRP-NH2] (Ac-Pro-Arg-Pro-NH2)	> 1000
CC(=O)N[C@@H](CCCNC(=N)N)C(=O)N1CCC[C@H]1C(=O)N1CCC[C@H]1C(N)=O [MH020, Ac-RPP-NH2] (Ac-Arg-Pro-Pro-NH2)	> 1000
CC(=O)N1CCC[C@H]1C(=O)N[C@@H](CCCNC(=N)N)C(=O)N1CCC[C@H]1C(=O)N1CCC[C@H]1C(N)=O [MH021, Ac-PRPP-NH2] (Ac-PRPP-NH2)	> 1000
Ac-APRPPKR-NH2 [MH047, Ac-APRPPKR-NH2]	≤ 300
Ac-EHIPPPPRPPKR-NH2 [MH028]	≤ 300
Ac-HIPPPPRPPKR-NH2 [MH027]	≤ 300
Ac-IPPPPRPPKR-NH2 [MH026]	≤ 300
Ac-PEHIPPPPRPPKR-NH2 [MH029]	≤ 300
Ac-PPEHIPPPPRPPKR-NH2 [MH030]	≤ 300

same assay, conditions: Sliding window peptide analysis; ITC, 25 °C, pH 8.0

Compound	Kd [µM]
Ac-EHIPPP-NH2 [MH039, Ac-EHIPPP-NH2]	> 1000
Ac-IPPPPR-NH2 [MH038, Ac-IPPPPR-NH2]	> 1000
Ac-PPEHIP-NH2 [MH040, Ac-PPEHIP-NH2]	> 1000

same assay, conditions: exemplary control peptides; ITC, 25 °C, pH 8.0

Compound	Kd [µM]
Ac-PAVPPRP-NH2 [MH082, Ac-PAVPPRP-NH2, reference compound]	> 1000

same assay, conditions: substitutions at position 1 of MD18; ITC, 25 °C, pH 8.0

Compound	Kd [µM]
Ac-APRPPKR-NH2 [MH047, Ac-APRPPKR-NH2]	≤ 300
Ac-CPRPPKR-NH2 [MH070, Ac-CPRPPKR-NH2]	≤ 300
Ac-DPRPPKR-NH2 [MH083, Ac-DPRPPKR-NH2]	≤ 300
Ac-EPRPPKR-NH2 [MH071, Ac-EPRPPKR-NH2]	≤ 300
Ac-FPRPPKR-NH2 [MH073, Ac-FPRPPKR-NH2]	≤ 300
Ac-GPRPPKR-NH2 [MH091, Ac-GPRPPKR-NH2]	≤ 300
Ac-HPRPPKR-NH2 [MH072, Ac-HPRPPKR-NH2]	≤ 300
Ac-IPRPPKR-NH2 [MH095, Ac-IPRPPKR-NH2]	≤ 300
Ac-KPRPPKR-NH2 [MH103, Ac-KPRPPKR-NH2]	≤ 300
Ac-LPRPPKR-NH2 [MH099, Ac-LPRPPKR-NH2]	300 to 600
Ac-MPRPPKR-NH2 [MH109, Ac-MPRPPKR-NH2]	≤ 300
Ac-NPRPPKR-NH2 [MH069, Ac-NPRPPKR-NH2]	≤ 300

same assay, conditions: substitutions at position 3 of MD18; ITC, 25 °C, pH 8.0

Compound	Kd [µM]
Ac-PPCPPKR-NH2 [MH061, Ac-PPCPPKR-NH2]	≤ 300
Ac-PPDPPKR-NH2 [MH084, Ac-PPDPPKR-NH2]	≤ 300
Ac-PPEPPKR-NH2 [MH058, Ac-PPEPPKR-NH2]	≤ 300
Ac-PPFPPKR-NH2 [MH066, Ac-PPFPPKR-NH2]	≤ 300
Ac-PPGPPKR-NH2 [MH092, Ac-PPGPPKR-NH2]	600 to 1000
Ac-PPHPPKR-NH2 [MH057, Ac-PPHPPKR-NH2]	≤ 300
Ac-PPIPPKR-NH2 [MH096, Ac-PPIPPKR-NH2]	≤ 300
Ac-PPKPPKR-NH2 [MH055, Ac-PPKPPKR-NH2]	≤ 300
Ac-PPLPPKR-NH2 [MH100, Ac-PPLPPKR-NH2]	≤ 300
Ac-PPMPPKR-NH2 [MH110, Ac-PPMPPKR-NH2]	≤ 300
Ac-PPNPPKR-NH2 [MH060, Ac-PPNPPKR-NH2]	≤ 300
